Laboratory results: BindingDB's records for doi:10.3109/14756360903049042 (Medical University of Bialystok, 2010)

Columns and labels:
Plasminogen = Plasminogen (Homo sapiens, UniProt P00747); test: Amidolytic Activity Assay (Plasmin); conditions: pH 7.4
Procedure: Determination of amidolytic activity was performed as described previously [Okada et al., Chem. Pharm. Bull., 36:1289-1297]. Detailed description of the method is given below. To 0.2 cm3 of examined compound (1−11; 0.15 M NaCl as control), buffer, and 0.1 cm^3 of enzyme solution was added: tris buffer−0.5 cm^3 (pH = 7.4); enzyme: plasmin (0.4 unit/cm^3); synthetic substrate: S-2251 (0.2 cm^3, 3 mM/dm^3).

Serine protease 1 = Serine protease 1 (Homo sapiens, UniProt P07477); test: Amidolytic Activity Assay (Trypsin); conditions: pH 7.5
Procedure: Determination of amidolytic activity was performed as described previously [Okada et al., Chem. Pharm. Bull., 36:1289-1297]. Detailed description of the method is given below. […]

Chain of Serine protease 1 (P07477 whole entry): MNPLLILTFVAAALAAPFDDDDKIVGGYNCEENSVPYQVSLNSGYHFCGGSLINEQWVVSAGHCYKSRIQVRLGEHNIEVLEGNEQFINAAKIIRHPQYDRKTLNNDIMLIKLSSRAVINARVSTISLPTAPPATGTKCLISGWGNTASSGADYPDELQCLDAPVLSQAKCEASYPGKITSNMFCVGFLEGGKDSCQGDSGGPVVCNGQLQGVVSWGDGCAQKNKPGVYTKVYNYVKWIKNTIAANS
Chain of Plasminogen (P00747 97-580 limits assumed): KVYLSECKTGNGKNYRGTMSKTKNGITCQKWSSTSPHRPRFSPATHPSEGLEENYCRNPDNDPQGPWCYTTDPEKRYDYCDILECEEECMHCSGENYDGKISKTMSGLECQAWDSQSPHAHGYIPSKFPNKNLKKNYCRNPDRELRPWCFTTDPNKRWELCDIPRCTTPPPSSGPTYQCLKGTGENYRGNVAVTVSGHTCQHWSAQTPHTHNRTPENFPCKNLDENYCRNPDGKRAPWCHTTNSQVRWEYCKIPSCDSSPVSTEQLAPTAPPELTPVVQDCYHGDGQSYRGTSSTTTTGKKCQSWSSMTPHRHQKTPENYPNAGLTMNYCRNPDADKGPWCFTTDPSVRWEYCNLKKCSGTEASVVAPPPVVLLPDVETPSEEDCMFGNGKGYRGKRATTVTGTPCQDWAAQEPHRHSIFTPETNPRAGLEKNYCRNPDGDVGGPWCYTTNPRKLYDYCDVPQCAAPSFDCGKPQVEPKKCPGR
Chain of Plasminogen (P00747 581-810 limits assumed): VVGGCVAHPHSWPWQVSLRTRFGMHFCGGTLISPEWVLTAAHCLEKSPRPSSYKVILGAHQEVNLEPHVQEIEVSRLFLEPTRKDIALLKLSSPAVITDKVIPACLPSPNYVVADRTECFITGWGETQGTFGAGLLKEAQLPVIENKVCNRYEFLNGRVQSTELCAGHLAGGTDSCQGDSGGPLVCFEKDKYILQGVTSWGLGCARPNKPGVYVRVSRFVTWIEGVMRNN

| Compound | Ki (Plasminogen) [µM] | Ki (Serine protease 1) [µM] |
| --- | --- | --- |
| C[C@H](NC(=O)[C@H](N)CO)C(=O)N[C@@H](CCCNC(=N)N)C(=O)NCCO [H-D-Ser-Ala-Arg-NH-(CH2)2-OH (9)] | 727 |  |
| C[C@H](NC(=O)[C@H](N)CO)C(=O)N[C@@H](CCCNC(=N)N)C(=O)NCCCO [H-D-Ser-Ala-Arg-NH-(CH2)3-OH (10)] | 1090 | 15 |
| C[C@H](NC(=O)[C@H](N)CO)C(=O)N[C@@H](CCCNC(=N)N)C(=O)NCCCCO [H-D-Ser-Ala-Arg-NH-(CH2)4-OH (11)] | 545 | 10 |
| C[C@H](NC(=O)[C@H](N)CO)C(=O)N[C@@H](CCCNC(=N)N)C(=O)NCCCCCCCN [H-D-Ser-Ala-Arg-NH-(CH2)7-NH2 (6)] | 364 | 30 |
| C[C@H](NC(=O)[C@H](N)CO)C(=O)N[C@@H](CCCNC(=N)N)C(=O)NCCCCCCCCN [H-D-Ser-Ala-Arg-NH-(CH2)8-NH2 (7)] |  | 10 |

Now from value to compound:

| Ki (Plasminogen) [µM] | Ki (Serine protease 1) [µM] | Compound |
| --- | --- | --- |
| 37 |  | C[C@H](NC(=O)[C@H](N)CO)C(=O)N[C@@H](CCCNC(=N)N)C(=O)NCCCCCN [H-D-Ser-Ala-Arg-NH-(CH2)5-NH2 (4)] |
| 181 | 2.5 | C[C@H](NC(=O)[C@H](N)CO)C(=O)N[C@@H](CCCNC(=N)N)C(=O)NCCCCCCN [H-D-Ser-Ala-Arg-NH-(CH2)6-NH2 (5)] |
| 90 | 5 | C[C@H](NC(=O)[C@H](N)CO)C(=O)N[C@@H](CCCNC(=N)N)C(=O)NCCCCCCCCCN [H-D-Ser-Ala-Arg-NH-(CH2)9-NH2 (8)] |
